From patent publication US9593140B2, “Antibacterial tylosin derivatives and methods for their preparation” (Bayer Intellectual Property GmbH, priority 2011, dated 2017)

How the values were obtained:
Type in all cases: cell-based
[1] = system: Mannhemia hemolytica KB345; assay: Paper disc assay, M. hemolytica KB345 (Tilmicosin-sensitivity strain); details: for zone of inhibition at 1 mg/disc: 1 mg/6 mm disk; for Inhibition zone (mm): Table 4
Procedure: (§1) (1) Antibacterial Activities Against Mannheimia and Pasteurella were Determined by the Following Steps:
(§2) 1) M. hemolytica KB345 (Tilmicosin-sensitivity strain) and M. hemolytica KB346 (Tilmicosin-low sensitivity strain) were provided. KB 345 strain stored at −80° C. was seeded to BHIB agar medium (10 mL) by using Microbank beads (Pro-Lab) and platinum nail. After statically incubating the KB 345 strain for 24 hours at 37° C., it was seeded to maintaining slant BHIB agar medium (7 mL) by using platinum loop, further statically incubated for 24 hours at 37° C. to obtain slant. One platinum loop of KB 345 strain stored at the slant was inoculated into a large test tube charged with BHIB liquid medium (10 mL) and then incubated for 24 hours at 37° C. with shaking.
(§3) 2) A paper disc (ADVANTEC, Φ:6 mm) was impregnated with a solution of test compound and dried under reduced pressure.
(§4) 3) To a melted BHIB agar medium was inoculated 1% of the broth obtained from step 1) above to prepare a test plate. After the medium set, the paper disc prepared in step 2) above was put on the plate and it was incubated at 37° C.
(§5) 4) After one day, the inhibition zone diameter and clarity (A to E) were determined.

[2] = system: Bacillus subtilis ATCC6633; assay: Paper disc assay, Bacillus subtilis (S)
Procedure: (§6) (2) Antibacterial activities against other bacteria were determined with Micrococcus luteus ATCC9341 (1), Bacillus subtilis […] (s), Escherichia coli NIHJ (c), Xanthomonas campestris KB88 (X), Mucor racemosus IFO 4581 (Mu) and Candida albicans ATCC 64548 (Ca).
(§7) Bacillus subtilis ATCC6633 was incubated in Davis synthetic medium and then the seed broth was combined with the medium in the ratio of 1:99 to obtain a test plate. Micrococcus luteus ATCC9341, Escherichia coli NIHJ and Xanthomonas campestris KB88 were respectively incubated in Nutrient agar medium and inoculated at 0.2%, 0.5% and 1.0%. Mucor racemosus IFO 4581 and Candida albicans ATCC 64548 were respectively incubated in GY agar medium and then inoculated at 0.3% and 0.2%.
(§8) A paper disc (ADVANTEC, Φ:6 mm) was impregnated with a solution of test compound and dried under reduced pressure. The paper disc was put on the test plate and it was incubated for 24 hours at 37° C. After incubation, the inhibition zone diameter and clarity (A to E) were determined.

[3] = system: Micrococcus luteus ATCC9341; assay: Paper disc assay, Micrococcus luteus (l)
Procedure: as §6, §7, §8

Escherichia coli NIHJ = assay: Paper disc assay, Escherichia coli (c)
Procedure: as §6, §7, §8

[4] = system: Xanthomonas campestris KB88; assay: Paper disc assay, Xanthomonas campestris (X)
Procedure: as §6, §7, §8

[5] = system: Mannhemia hemolytica KB346; assay: Paper disc assay, M. hemolytica KB346 (Tilmicosin-low sensitivity strain); details: Table 5; 100 mg/6 mm disk
Procedure: as §1, §2, §3, §4, §5
For KB346 strain, the same procedures were repeated.

[6] = system: Mannheimia Haemolytica, 3 isolates; assay: Minimal inhibitory concentrations, cattle pathogen isolates
Procedure: (§9) The antibacterial activity by the compounds of the present invention may be measured using a number of assays available in the art. […] Minimal inhibitory concentrations (MICs) were determined against the most prevalent pathogens in cattle (Mannheimia Haemolytica, 3 isolates) and swine (A. pleuropneumoniae, 6 isolates).The results are summarized in Table 7.

[7] = system: A. pleuropneumoniae, 6 isolates; assay: Minimal inhibitory concentrations, swine pathogen isolates
Procedure: as §9

| Structure (SMILES) | zone of inhibition at 1 mg/disc ([1]; 24 h, Table 2) [mm] | zone of inhibition at 3 mg/disc ([1]; 24 h, Table 2, 3 mg/6 mm disk) [mm] | Inhibition zone (mm) ([2]; 0.1 mg/6 mm disc) | Inhibition zone (mm) ([2]; 1 mg/6 mm disc) | Inhibition zone (mm) ([2]; 10 mg/6 mm disc) | Inhibition zone (mm) ([3]; 0.1 mg/6 mm disc) | Inhibition zone (mm) ([3]; 1 mg/6 mm disc) | Inhibition zone (mm) ([3]; 10 mg/6 mm disc) | Inhibition zone (mm) (Escherichia coli NIHJ; 10 mg/6 mm disc) | Inhibition zone (mm) ([4]; 0.1 mg/6 mm disc) | Inhibition zone (mm) ([4]; 1 mg/6 mm disc) | Inhibition zone (mm) ([4]; 10 mg/6 mm disc) | other results |
| --- | --- | --- | --- | --- | --- | --- | --- | --- | --- | --- | --- | --- | --- |
| CC[C@H]1OC(=O)C[C@@H](O)[C@H](C)[C@@H](O[C@@H]2O[C@H](C)[C@@H](O)[C@H](N(C)C)[C@H]2O)[C@@H](CCn2cc(-c3ccsc3)nn2)C[C@@H](C)C(=O)/C=C/C(C)=C/[C@@H]1CO[C@@H]1O[C@H](C)[C@@H](O)[C@@H](OC)[C@H]1OC [YT14, 20-(4-(thiophene-3-yl)-1H-1,2,3-triazol-1-yl)-20-deoxodesmycosin] | 11 | 14 | 8 | 11 | 15 | 13.5 | 20.5 | 26.5 | 7 | 7 | 16 | 22 | zone of inhibition at 10 mg/disc ([1]; 24 h, Table 2, 10 mg/6 mm disk): 16.5 mm; zone of inhibition at 30 mg/disc ([1]; 24 h, Table 2, 30 mg/6 mm disk): 19.5 mm; zone of inhibition at 100 mg/disc ([1]; 24 h, Table 2, 100 mg/6 mm disk): 22 mm |
| CC[C@H]1OC(=O)C[C@@H](O)[C@H](C)[C@@H](O[C@@H]2O[C@H](C)[C@@H](O)[C@H](N(C)C)[C@H]2O)[C@@H](CCn2cc(-c3ccccc3)nn2)C[C@@H](C)C(=O)/C=C/C(C)=C/[C@@H]1CO [YT112, 20-(4-phenyl-1H-1,2,3-triazol-1-yl)-20-deoxo-5-O-mycaminosyltylonolide] | – | – | – | – | – | – | – | – | – | – | – | – | Inhibition zone (mm) ([1]; 3 mg/6 mm disk): 17.0 mm; Inhibition zone (mm) ([1]; 10 mg/6 mm disk): 20.0 mm; Inhibition zone (mm) ([1]; 30 mg/6 mm disk): 25.0 mm; Inhibition zone (mm) ([1]; 100 mg/6 mm disk): 29.0 mm; Inhibition zone (mm) [5]: 11.5 mm; MICs ([6]; M. haemolytica isolate 1): 8 µg/mL; MICs ([6]; M. haemolytica isolate 2): 4 µg/mL; MICs ([6]; M. haemolytica isolate 3): 8 µg/mL; MICs ([7]; pleuropneumoniae isolate 1): 4 µg/mL; MICs ([7]; pleuropneumoniae isolate 2): 4 µg/mL; MICs ([7]; pleuropneumoniae isolate 3): 4 µg/mL; MICs ([7]; pleuropneumoniae isolate 4): 8 µg/mL; MICs ([7]; pleuropneumoniae isolate 5): 4 µg/mL; MICs ([7]; pleuropneumoniae isolate 6): 8 µg/mL |
| CC[C@H]1OC(=O)C[C@@H](O)[C@H](C)[C@@H](O[C@@H]2O[C@H](C)[C@@H](O)C(N(C)C)C2O)[C@@H](CCN2CC(C)CC(C)C2)C[C@@H](C)C(=O)/C=C/C(C)=C/[C@@H]1CO[C@@H]1OC(C)[C@@H](O)[C@H](OC)C1OC (stereo partly drawn) [Tilmicosin, reference compound] | 10.7 | 13.5 | 14 | 11 | 18 | 12 | 19 | 27.5 | 20 | 12 | 20 | 30 | Inhibition zone (mm) (Escherichia coli NIHJ; 1 mg/6 mm disc): 13 mm |
